The subject of one assay is Trichomonas vaginalis. The assay is described as follows: Growth inhibition of clinically isolated Trichomonas vaginalis in Trichomonas medium F (Neutral Red colour, inverted microscope). The format is cell-based. Particulars: for Color / Result of microscopic observation: 72 hours at 37° C.; for Result of microscopic observation: inverted microscope. The procedure: The effect on Trichomonas vaginalis was investigated for luliconazole of the compound represented by the general formula (1). That is, 5×10^6 cells of clinically isolated Trichomonas vaginalis were seeded in Trichomonas medium F (6.5 mL, contained in tube) produced by Fujiyakuhin Co., Ltd. containing Neutral Red as a marker, and the preculture was carried out for 72 hours (preculture). It was confirmed that Trichomonas grew, the acid was actively produced, and Neutral Red was changed to be yellow. After that, the preculture was added to Trichomonas medium F by every 100 μL in order to carry out the main culture, to which 0.5 mL of a test solution was added. In this situation, the number of protozoas in the solution of preculture was 1.5×10^5 cells/mL. Three series of test solutions were prepared, in which the luliconazole concentrations were 200 μM (final concentration: 35.2 μM), 100 μM (final concentration: 17.6 μM), and 50 μM (final concentration: 8.8 μM), as luliconazole dissolved in 10% methanol saline solution. 0.5 mL of vehicle was added as a control. As for the vehicle, 10% methanol saline solution (final concentration: 0 μM) was used. Stirring was sufficiently performed after the addition, followed by culturing at 37° C. for 72 hours. After the completion of the cultivation, the color was discriminated, and the state of protozoas was observed by using an inverted microscope. […] The same or equivalent investigation as that of Example 1 was performed while changing luliconazole to lanoconazole.

Assay [1] deals with Chlamydia trachomatis (D/UW3/Cx). Description: Anti-intracellular parasite action, Chlamydia inclusion bodies in HeLa 229 host cells (fluorescence staining). The format is cell-based. The procedure:
The anti-intracellular parasite action was investigated by using Chlamydia trachomatis (D/UW3/Cx). That is, Chlamydia trachomatis was cultured in the presence of ×2 dilution series of 8 to 64 μg/ml of luliconazole by using HeLa 229 cells as the host. MEM added with 8% thermally inactivated FBS, to which 1 μg/ml of cyclohexamide was added, was used as the medium, and the culture was performed for 72 hours in 5% carbon dioxide gas at 37° C. After the culture, inclusion bodies were subjected to the fluorescent staining to be apple green with Chlamydia FA reagent “Seiken” (produced by DENKA SEIKEN Co., Ltd.), and the observation was performed by using a fluorescence microscope.

[2] abbreviates: final concentration 8.8 μM, Neutral Red marker.
Setting [3] is: final concentration 17.6 μM, Neutral Red marker.
Where [4] appears, read: final concentration 35.2 μM, Neutral Red marker (yellow = acid production by growing Trichomonas).

Each structure is given as a SMILES string.

As to `N#C/C(=C1/SCC(c2ccccc2Cl)S1)n1ccnc1` (stereo not shown) [lanoconazole, 4-(2-chlorophenyl)-1,3-dithiolane-2-ylidene-1-imidazolyl acetonitrile], the Color entry with Trichomonas vaginalis (setting [2]) is “yellow”; with Trichomonas vaginalis (setting [3]) it was “red”; with Trichomonas vaginalis (setting [4]), “red”. Further, the “Result of microscopic observation” value with Trichomonas vaginalis (final concentration 8.8 μM) was “large number of protozoas were observed”; in the assay on Trichomonas vaginalis (final concentration 17.6 μM) it was “protozoas were observed slightly”; in the assay on Trichomonas vaginalis (final concentration 35.2 μM), “no protozoa was observed”.
For the molecule `N#C/C(=C1/SC[C@@H](c2ccc(Cl)cc2Cl)S1)n1ccnc1` [luliconazole, (R)-(−)-(E)-[4-(2,4-dichlorophenyl)-1,3-dithiolane-2-ylidene]-1-imidazolyl acetonitrile], the “observation result of Chlamydia inclusion bodies” value in assay [1] (treatment with 8 μg/mL, FIG. 1 panel (A)) is recorded as “dot-shaped Chlamydia inclusion bodies stained apple green were observed”; in assay [1] (treatment with 16 μg/mL, FIG. 1 panel (B)) it was “dot-shaped Chlamydia inclusion bodies stained apple green were observed”; in assay [1] (treatment with 32 μg/mL, FIG. 1 panel (C)), “No inclusion body was found”. The “growth of Trichomonas” value with Trichomonas vaginalis (at 8.8 μM) was “inhibits the growth”. The Color result in the assay with Trichomonas vaginalis (setting [2]) is reported as “yellow”; in the assay on Trichomonas vaginalis (setting [3]) it was “red”; in the assay on Trichomonas vaginalis (setting [4]), “red”. The entries for the “Result of microscopic observation” value with Trichomonas vaginalis (final concentration 8.8 μM), in the assay with Trichomonas vaginalis (final concentration 17.6 μM) and with Trichomonas vaginalis (final concentration 35.2 μM) were “protozoas were observed slightly”, “no protozoa was observed” and “no protozoa was observed”, respectively.
